Reference: patent publication US20240325544A1, “CATIONIC LIPID FOR COVALENT MODIFICATION OF PEPTIDES” (PharmalN Corporation, priority 2023, published 2024)
Bridge positions count the residues as written; N and C are the ends. Square brackets hold non-standard residues; d marks the D form. Peptide text beside a SMILES is read from it. * marks the point of attachment. Stearoyl = CCCCCCCCCCCCCCCCCC(=O)*; Palmitoyl = CCCCCCCCCCCCCCCC(=O)*; Dab = NCC[C@H](N)C(=O)O; Hexanoyl = CCCCCC(=O)*

Legend:
[1] = test system: cGMP; assay: Plasma cGMP after SC bolus of natriuretic peptides in CD-1 mice (pharmacodynamics, Table 3); format: in vivo; conditions: SC bolus 1.0 mg/kg (≤0.45 μmol/kg), baseline 10 +/−8 pmol/ml, n = 3-5
Procedure: The test articles were formulated or dissolved in sterile water for injection on the same day of administration. […] Blood samples were collected via retro-orbital bleed at 2- and 6-hours post-injection, with two bleedings per animal at two different timepoints. The samples were collected in K2EDTA tubes, processed by centrifugation (2000×g; 15 m 4 eC within 30 minutes after collection), and the resulting plasma samples were stored at −80° C. Biochemical analysis: The plasma concentration of the respective natriuretic peptide was analyzed using commercially available ELISA kits from Phoenix Pharmaceuticals (Burlingame, CA): ANP ELISA (cat #EKE-005-06), BNP ELISA (cat #EKE-011-03), and CNP ELISA (cat #EKE-012-03). […] Plasma cGMP was analyzed using a commercially available kit from Abcam (ab133052, Waltham, MA).

[2] = test system: Sprague Dawley rats; assay: Dose-range finding of cationic alkyl modified CNP, subcutaneous bolus in rats (Table 2)
Procedure: Animal care and treatment: Male Sprague Dawley rats aged 8 to 10 weeks (Charles River, Hollister, CA) were housed in groups of two (n=3/group) in disposable polypropylene cages with rodent cob bedding at the PharmaIN animal facility. Animals had ad libitum access to food (LabDiet Pico Rodent #5053; Animal Specialties, Woodburn, OR) and water. Temperature (68-74° F.) and humidity (30-60%) were maintained within a controlled range, and a 12-hour light/dark cycle was used. […] Animals were monitored closely during the first 4 hours following injection, then hourly throughout the rest of the day for any signs of swelling or discoloration (dilatory side effect), lethargy (side effect), ataxia (ataxia is used as a marker of toxicity). Rats were allowed a 1-week wash-out period between bolus doses. Following final observations, animals were humanely euthanized through CO2 asphyxiation.

[3] = test system: Sprague Dawley rats; assay: Clinically observable adverse effects of cationic alkyl moieties after subcutaneous bolus in rats (Table 1); format: in vivo, rat; conditions: tested at 3.0, 5.0 or 10 μmol/kg
Procedure: Drug administration and observation: Each rat received a subcutaneous injection of a cationic alkyl modifier (SEQ ID NO: 1-22; listed in Table 1 below) in a buffer of sterile water adjusted to a pH between 4.5-5, with an initial bolus dose of 5.0 μmol/kg and an injection volume of 1.0 mL/kg. The bolus dose level was adjusted based on observations, and animals were monitored closely for lethargy, ataxia, swelling, or discoloration during the first 4 hours post-injection and hourly thereafter. As used herein, “ataxia” means a clinical sign observed as poor muscle control that causes clumsy voluntary movements. It may cause difficulty with mobility, coordination, and eye movements. As used herein, “lethargy” means a clinical sign observed as inability or unwillingness to resume normal activity characterized by exploring and alertness. Lethargic rats are easily observed by displaying little to no activity and/or unwillingness to explore around, half closed eyes, and hunched posture. As used herein, “swelling” means a clinical sign observed as the enlargement or engorgement of body parts with blood or fluid and is associated with visible redness (discoloration). If no swelling occurred, dose level was increased to 10 μmol/kg; if swelling was present, bolus dose level was decreased to 3.0 μmol/kg. A wash-out period of 1 week was allowed between bolus doses, and animals were humanely euthanized through CO2 asphyxiation after final observation.

Lethargy* in n = 3 ([2]; up to 10 mg/kg) [mg/kg] | Swelling and/or Discoloration in n = 3 ([2]; up to 10 mg/kg) [mg/kg] | Lethargy* in n = 3 ([2]; value in parentheses) | Swelling and/or Discoloration in n = 3 ([2]; value in parentheses) | Structure (SMILES) | Plasma concentration of cGMP, 2 hr ([1]; 2 hr) [pmol/mL] | Plasma concentration of cGMP, 6 hr ([1]; 6 hr) [pmol/mL] | Ataxia** in n = 3 ([2]; up to 10 mg/kg) [mg/kg] | Ataxia** in n = 3 ([2]; value in parentheses) | Ataxia** in n = 3 ([3]; ataxia is bolus dose limiting toxicity) [µmol/kg] | Swelling and/or Discoloration in n = 3 ([3]; dose at which sign was seen) [µmol/kg] | Lethargy* in n = 3 ([3]; lethargy is considered maximum tolerated bolus dose) [µmol/kg]
– | – | – | – | CC[C@H](C)[C@@H]1NC(=O)[C@H](CCCNC(=N)N)NC(=O)[C@H](CC(=O)O)NC(=O)[C@H](CCSC)NC(=O)[C@H](CCCNC(=N)N)NC(=O)CNC(=O)CNC(=O)[C@H](Cc2ccccc2)NC(=O)[C@@H](NC(=O)[C@H](CO)NC(=O)[C@H](CO)NC(=O)[C@H](CCCNC(=N)N)NC(=O)[C@H](CCCNC(=N)N)NC(=O)[C@H](CC(C)C)NC(=O)[C@@H](N)CO)CSSC[C@@H](C(=O)N[C@@H](CC(N)=O)C(=O)N[C@@H](CO)C(=O)N[C@@H](Cc2ccccc2)C(=O)N[C@@H](CCCNC(=N)N)C(=O)N[C@@H](Cc2ccc(O)cc2)C(=O)O)NC(=O)CNC(=O)[C@H](CC(C)C)NC(=O)CNC(=O)[C@H](CO)NC(=O)[C@H](CCC(N)=O)NC(=O)[C@H](C)NC(=O)CNC1=O [SEQ ID NO: 44, reference compound] | 26.23 | 14.08 | – | – | – | – | –
≥5 | ≥5 | (1.6) μmol/kg | (1.6) μmol/kg | CCCCCCCCCCCCCCCC(=O)NCC(=O)NCC(=O)NCC(=O)N[C@@H](CCCCN)C(=O)N[C@@H](CCCCN)C(=O)N[C@@H](CCCCN)C(=O)N[C@@H](CCCCN)C(=O)NCC(=O)N[C@@H](CC(C)C)C(=O)N[C@@H](CO)C(=O)N[C@@H](CCCCN)C(=O)NCC(=O)N[C@H]1CSSC[C@@H](C(=O)O)NC(=O)CNC(=O)[C@H](CC(C)C)NC(=O)CNC(=O)[C@H](CO)NC(=O)[C@H](CCC(N)=O)NC(=O)[C@H](CO)NC(=O)CNC(=O)[C@H]([C@@H](C)CC)NC(=O)[C@H](CCCNC(=N)N)NC(=O)[C@H](CC(=O)O)NC(=O)[C@H](CC(C)C)NC(=O)[C@H](CCCCN)NC(=O)[C@H](CC(C)C)NC(=O)CNC(=O)[C@H](Cc2ccccc2)NC1=O [SEQ ID NO: 25] (Palmitoyl-GGGKKKKGLSKGCFGLKLDRIGSQSGLGC-OH; disulfide 13-29; C-terminus assumed) | – | – | ≥5 | (1.6) μmol/kg | – | – | –
≥5 | ≥5 | (1.6) μmol/kg | (1.6) μmol/kg | CCCCCCCCCCCCCCCC(=O)N[C@@H](CCCCN)C(=O)N[C@@H](CCCCN)C(=O)NCC(=O)NCC(=O)NCC(=O)N[C@@H](CCCCN)C(=O)N[C@@H](CCCCN)C(=O)NCC(=O)N[C@@H](CC(C)C)C(=O)N[C@@H](CO)C(=O)N[C@@H](CCCCN)C(=O)NCC(=O)N[C@H]1CSSC[C@@H](C(=O)O)NC(=O)CNC(=O)[C@H](CC(C)C)NC(=O)CNC(=O)[C@H](CO)NC(=O)[C@H](CCC(N)=O)NC(=O)[C@H](CO)NC(=O)CNC(=O)[C@H]([C@@H](C)CC)NC(=O)[C@H](CCCNC(=N)N)NC(=O)[C@H](CC(=O)O)NC(=O)[C@H](CC(C)C)NC(=O)[C@H](CCCCN)NC(=O)[C@H](CC(C)C)NC(=O)CNC(=O)[C@H](Cc2ccccc2)NC1=O [SEQ ID NO: 24] (Palmitoyl-KKGGGKKGLSKGCFGLKLDRIGSQSGLGC-OH; disulfide 13-29; C-terminus assumed) | – | – | ≥5 | (1.6) μmol/kg | – | – | –
– | – | – | – | CCCCCCCCCCCCCCCC(=O)NCCOCCOCC(=O)NCCOCCOCC(=O)NCCOCCOCC(=O)N[C@@H](CCCCN)C(=O)N[C@@H](CCCCN)C(=O)O [SEQ ID NO: 7, CH3(CH2)14(C═O)-Aeea-Aeea-Aeea-KK] | – | – | – | – | >5 | ≥3 | ≥5
≥5 | ≥5 | (1.6) μmol/kg | (1.6) μmol/kg | CCCCCC(=O)N[C@@H](CCCCN)C(=O)N[C@@H](CCCCN)C(=O)NCC(=O)NCC(=O)NCC(=O)N[C@@H](CCCNC(=N)N)C(=O)N[C@@H](CCCNC(=N)N)C(=O)NCC(=O)N[C@@H](CC(C)C)C(=O)N[C@@H](CO)C(=O)N[C@@H](CCCCN)C(=O)NCC(=O)N[C@H]1CSSC[C@@H](C(=O)O)NC(=O)CNC(=O)[C@H](CC(C)C)NC(=O)CNC(=O)[C@H](CO)NC(=O)[C@H](CCC(N)=O)NC(=O)[C@H](CO)NC(=O)CNC(=O)[C@H]([C@@H](C)CC)NC(=O)[C@H](CCCNC(=N)N)NC(=O)[C@H](CC(=O)O)NC(=O)[C@H](CC(C)C)NC(=O)[C@H](CCCCN)NC(=O)[C@H](CC(C)C)NC(=O)CNC(=O)[C@H](Cc2ccccc2)NC1=O [SEQ ID NO: 27] (Hexanoyl-KKGGGRRGLSKGCFGLKLDRIGSQSGLGC-OH; disulfide 13-29; C-terminus assumed) | – | – | ≥5 | (1.6) μmol/kg | – | – | –
≥1 | ≥1 | (0.31) μmol/kg | (0.31) μmol/kg | CCCCCCCCCCCCCCCCCC(=O)N[C@@H](CCCCN)C(=O)N[C@@H](CCCCN)C(=O)N[C@@H](CCCCN)C(=O)N[C@@H](CCCCN)C(=O)NCC(=O)NCC(=O)NCC(=O)NCC(=O)N[C@@H](CC(C)C)C(=O)N[C@@H](CO)C(=O)N[C@@H](CCCCN)C(=O)NCC(=O)N[C@H]1CSSC[C@@H](C(=O)O)NC(=O)CNC(=O)[C@H](CC(C)C)NC(=O)CNC(=O)[C@H](CO)NC(=O)[C@H](CCC(N)=O)NC(=O)[C@H](CO)NC(=O)CNC(=O)[C@H]([C@@H](C)CC)NC(=O)[C@H](CCCNC(=N)N)NC(=O)[C@H](CC(=O)O)NC(=O)[C@H](CC(C)C)NC(=O)[C@H](CCCCN)NC(=O)[C@H](CC(C)C)NC(=O)CNC(=O)[C@H](Cc2ccccc2)NC1=O [SEQ ID NO: 23] (Stearoyl-KKKKGGGGLSKGCFGLKLDRIGSQSGLGC-OH; disulfide 13-29; C-terminus assumed) | – | – | ≥3 | (0.94) μmol/kg | – | – | –
≥5 | ≥5 | (1.6) μmol/kg | (1.6) μmol/kg | CCCCCCCCCCCCCCCC(=O)N[C@H](CCCCN)C(=O)N[C@H](CCCCN)C(=O)N[C@H](CCCCN)C(=O)N[C@H](CCCCN)C(=O)NCC(=O)NCC(=O)NCC(=O)NCC(=O)N[C@@H](CC(C)C)C(=O)N[C@@H](CO)C(=O)N[C@@H](CCCCN)C(=O)NCC(=O)N[C@H]1CSSC[C@@H](C(=O)O)NC(=O)CNC(=O)[C@H](CC(C)C)NC(=O)CNC(=O)[C@H](CO)NC(=O)[C@H](CCC(N)=O)NC(=O)[C@H](CO)NC(=O)CNC(=O)[C@H]([C@@H](C)CC)NC(=O)[C@H](CCCNC(=N)N)NC(=O)[C@H](CC(=O)O)NC(=O)[C@H](CC(C)C)NC(=O)[C@H](CCCCN)NC(=O)[C@H](CC(C)C)NC(=O)CNC(=O)[C@H](Cc2ccccc2)NC1=O [SEQ ID NO: 26] (Palmitoyl-[dK][dK][dK][dK]GGGGLSKGCFGLKLDRIGSQSGLGC-OH; disulfide 13-29; C-terminus assumed) | – | – | ≥5 | (1.6) μmol/kg | – | – | –
≥5 | ≥5 | (1.6) μmol/kg | (1.6) μmol/kg | CCCCCC(=O)N[C@@H](CCCCN)C(=O)N[C@@H](CCCCN)C(=O)NCC(=O)NCC(=O)NCC(=O)N[C@@H](CCN)C(=O)N[C@@H](CCN)C(=O)NCC(=O)N[C@@H](CC(C)C)C(=O)N[C@@H](CO)C(=O)N[C@@H](CCCCN)C(=O)NCC(=O)N[C@H]1CSSC[C@@H](C(=O)O)NC(=O)CNC(=O)[C@H](CC(C)C)NC(=O)CNC(=O)[C@H](CO)NC(=O)[C@H](CCC(N)=O)NC(=O)[C@H](CO)NC(=O)CNC(=O)[C@H]([C@@H](C)CC)NC(=O)[C@H](CCCNC(=N)N)NC(=O)[C@H](CC(=O)O)NC(=O)[C@H](CC(C)C)NC(=O)[C@H](CCCCN)NC(=O)[C@H](CC(C)C)NC(=O)CNC(=O)[C@H](Cc2ccccc2)NC1=O [SEQ ID NO: 28] (Hexanoyl-KKGGG[Dab][Dab]GLSKGCFGLKLDRIGSQSGLGC-OH; disulfide 13-29; C-terminus assumed) | – | – | ≥5 | (1.6) μmol/kg | – | – | –
